Data taken from PubChem BioAssay AID330 (DTP/NCI, 2004).
“And” between values parts separate entries of the source, which are not always exact repeats. Equal entries are not always repeated. Inconclusive results and toxic doses are left out. Rule for the calls: active = survival T/C of 150% or more; inactive = T/C below 125% in these data.

Test system: P388 leukemia ip, CD2F1 mice, survival T/C
Experiment: NCI In Vivo Anticancer Drug Screen. Data for tumor model P388 Leukemia (intraperitoneal) in CD2F1 (CDF1) mice
Settings: endpoint: median survival time, higher = longer survival
How it was run: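 Mice carrying the transplanted tumor received test compound or vehicle. Survival was recorded in each group, and the value is the treated-group measurement divided by that of the vehicle-treated control group.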

[1] = dose: 50.0 mg/kg/injection, schedule: Q01DX009 (ip), vehicle: saline with Tween-80
[2] = dose: 100.0 mg/kg/injection, schedule: Q01DX009 (ip), vehicle: saline with Tween-80
[3] = dose: 50.0 mg/kg/injection, schedule: Q01DX005 (ip), vehicle: Klucel (hydroxypropylcellulose) (HPC)
[4] = dose: 100.0 mg/kg/injection, schedule: Q01DX005 (ip), vehicle: Klucel (hydroxypropylcellulose) (HPC)
[5] = dose: 200.0 mg/kg/injection, schedule: Q01DX005 (ip), vehicle: Klucel (hydroxypropylcellulose) (HPC)
[6] = dose: 12.5 mg/kg/injection, schedule: Q01DX009 (ip), vehicle: saline
[7] = dose: 25.0 mg/kg/injection, schedule: Q01DX009 (ip), vehicle: saline
[8] = dose: 12.5 mg/kg/injection, schedule: Q01DX005 (ip), vehicle: saline with Tween-80
[9] = dose: 60.0 mg/kg/injection, schedule: Q01DX005 (ip), vehicle: saline with Tween-80
[10] = dose: 120.0 mg/kg/injection, schedule: Q01DX005 (ip), vehicle: saline with Tween-80
[11] = dose: 240.0 mg/kg/injection, schedule: Q01DX005 (ip), vehicle: saline with Tween-80
[12] = dose: 3.0 mg/kg/injection, schedule: Q01DX009 (ip), vehicle: saline
[13] = dose: 6.0 mg/kg/injection, schedule: Q01DX009 (ip), vehicle: saline
[14] = dose: 50.0 mg/kg/injection, schedule: Q01DX009 (ip), vehicle: saline
[15] = dose: 200.0 mg/kg/injection, schedule: Q01DX009 (ip), vehicle: saline
[16] = dose: 50.0 mg/kg/injection, schedule: Q01DX009 (ip), vehicle: Klucel (hydroxypropylcellulose) (HPC)
[17] = dose: 100.0 mg/kg/injection, schedule: Q01DX009 (ip), vehicle: Klucel (hydroxypropylcellulose) (HPC)
[18] = dose: 200.0 mg/kg/injection, schedule: Q01DX009 (ip), vehicle: Klucel (hydroxypropylcellulose) (HPC)

Measured: T/C

CC1CNC(=O)NC1=O (configuration not stated)
inactive: [1] 94 % of control | [2] 86 % of control

O=C(NC[N+]12CCO[B-]1(c1cccc(Cl)c1)OCC2)c1ccccc1O (configuration not stated)
inactive: [3] 104 % of control | [4] 104 % of control | [5] 96 % of control

CCCCCCCCCCCCNC(=O)c1ccc[n+](Cc2ccc(Cl)c(Cl)c2)c1
inactive: dose: 3.13 mg/kg/injection, schedule: Q01DX009 (ip), vehicle: saline with Tween-80 100 % of control | dose: 6.25 mg/kg/injection, schedule: Q01DX009 (ip), vehicle: saline with Tween-80 95 % of control | dose: 12.5 mg/kg/injection, schedule: Q01DX009 (ip), vehicle: saline with Tween-80 100 % of control

FC(F)(F)COc1ccc(-c2nnc(-c3ccc(OCC(F)(F)F)cc3)o2)cc1
inactive: dose: 100.0 mg/kg/injection, schedule: Q04DX002 (ip), vehicle: saline with Tween-80 90 % of control | dose: 200.0 mg/kg/injection, schedule: Q04DX002 (ip), vehicle: saline with Tween-80 87 % of control | dose: 400.0 mg/kg/injection, schedule: Q04DX002 (ip), vehicle: saline with Tween-80 86 % of control

C=CCN(CC=C)C(N)=Nc1ccc(Cl)cc1
inactive: dose: 6.25 mg/kg/injection, schedule: Q01DX009 (ip), vehicle: saline 100 % of control | [6] 94 % of control | [7] 97 % of control

N#Cc1ccc(NN=NCCF)cc1
inactive: dose: 6.25 mg/kg/injection, schedule: Q01DX005 (ip), vehicle: distilled water + Tween-80 100 % of control | dose: 6.25 mg/kg/injection, schedule: Q01DX005 (ip), vehicle: saline with Tween-80 117 % of control | [8] 121 % of control

ONC(=Nc1ccc2ccccc2c1)C(=Nc1ccc2ccccc2c1)NO
inactive: [3] 95 % of control | [4] 90 % of control | [5] 94 % of control

CCOc1cc(C)c(CC2NC(=O)NC2=O)cc1C(C)C (configuration not stated)
inactive: dose: 100.0 mg/kg/injection, schedule: Q04DX003 (ip), vehicle: suspension in saline 100 % of control | dose: 200.0 mg/kg/injection, schedule: Q04DX003 (ip), vehicle: suspension in saline 100 % of control | dose: 400.0 mg/kg/injection, schedule: Q04DX003 (ip), vehicle: suspension in saline 88 % of control

COC1OC(CO)C(N(C)C(C)=O)C1O (configuration not stated)
inactive: dose: 60.0 mg/kg/injection, schedule: Q01DX005 (ip), vehicle: saline 120 % of control | dose: 120.0 mg/kg/injection, schedule: Q01DX005 (ip), vehicle: saline 115 % of control | dose: 240.0 mg/kg/injection, schedule: Q01DX005 (ip), vehicle: saline 106 % of control

C[C@@]12CCCC[C@@H]1Nc1ccccc12
inactive: [9] 98 % of control | [10] 100 % of control | [11] 97 % of control

CC1=CC(=O)C(O)C2(C)C(CCC3(C)OCCO3)C=C(O[Si](C)(C)C(C)(C)C)CC12 (configuration not stated)
inactive: [9] 96 % of control | [10] 96 % of control | [11] 100 % of control

CCCCCCCCC(=O)CCCC
inactive: [1] 109 % of control | [2] 122 % of control | dose: 100.0 mg/kg/injection, schedule: Q04DX003 (ip), vehicle: saline 100 % of control | dose: 200.0 mg/kg/injection, schedule: Q04DX003 (ip), vehicle: saline 113 % of control

Cc1nc2ncn(-c3ccccc3)c2c(=O)n1Cc1ccccc1
inactive: [3] 105 % of control | [4] 105 % of control | [5] 105 % of control

CCN1CC2(C)CCC(OC)C34C5CC6CCC(O)(C5C(=O)O6)C(C(OC(C)=O)C23)C14 (configuration not stated)
inactive: [12] 100 % of control | [13] 101 % of control | dose: 12.0 mg/kg/injection, schedule: Q01DX009 (ip), vehicle: saline 98 % of control

O=C(Nc1ccc(Cl)cc1)Nc1nnc2nc(C(C(=O)c3ccc(F)cc3)c3nc4nnc(NC(=O)Nc5ccc(Cl)cc5)n4[nH]c3=O)c(=O)[nH]n12
inactive: [9] 103 % of control | [10] 93 % of control | [11] 86 % of control

CC(=O)NC(Cc1ccsc1)C(=O)O (configuration not stated)
inactive: [14] 108 % of control | dose: 100.0 mg/kg/injection, schedule: Q01DX009 (ip), vehicle: saline 92 % of control | [15] 99 % of control

CCOC(=O)C(=CNc1cccc2c(O)cccc12)C(=O)OCC
inactive: [8] 90 % of control | dose: 25.0 mg/kg/injection, schedule: Q01DX005 (ip), vehicle: saline with Tween-80 93 % of control | dose: 50.0 mg/kg/injection, schedule: Q01DX005 (ip), vehicle: saline with Tween-80 97 % of control | dose: 200.0 mg/kg/injection, schedule: Q01DX005 (ip), vehicle: saline with Tween-80 95 % of control

O=C(Nc1ccc(Cl)cc1)Oc1ccc(Cl)cc1C(=O)c1ccccc1
inactive: [9] 111 % of control | [10] 110 % of control | [11] 112 % of control

O=C(Nc1cccnc1)c1ccc(CSc2ccc(Cl)cc2)o1
inactive: [3] 104 % of control | [4] 102 % of control | [5] 111 % of control

O=c1c(Cl)c2oc3cc([N+](=O)[O-])ccc3nc-2c(Cl)c1Cl
inactive: [16] 107 % of control | [17] 99 % of control | [18] 91 % of control

CCCCNCCC1(CCC(C)C)C(=O)NC(=O)NC1=O
inactive: [3] 96 % of control | [4] 105 % of control | [5] 101 % of control

COc1cc(=O)cc2n(-c3cc(OC)c(O)c(OC)c3)c3ccccc3nc1-2
inactive: [6] 100 % of control | [7] 104 % of control | [14] 102 % of control and 88 % of control | [15] 98 % of control

CC1=CC2C3C(=O)NC(=O)C3C1(C)C1C3C(=O)NC(=O)C3C21 (configuration not stated)
inactive: [9] 100 % of control | [10] 100 % of control | [11] 101 % of control

COc1cc(C)c(/C(=N/O)n2nnc(-c3ccc(Cl)cc3)n2)c(C)c1
inactive: dose: 100.0 mg/kg/injection, schedule: Q01DX001 (ip), vehicle: saline with Tween-80 123 % of control | dose: 200.0 mg/kg/injection, schedule: Q01DX001 (ip), vehicle: saline with Tween-80 114 % of control | dose: 400.0 mg/kg/injection, schedule: Q01DX001 (ip), vehicle: saline with Tween-80 95 % of control

Nc1nc2c(s1)CCC2
inactive: [1] 118 % of control | [2] 104 % of control | dose: 200.0 mg/kg/injection, schedule: Q01DX009 (ip), vehicle: saline with Tween-80 93 % of control

CN(C)c1ccc(-c2cccc[n+]2C)cc1
inactive: dose: 1.5 mg/kg/injection, schedule: Q01DX009 (ip), vehicle: saline 103 % of control | [12] 108 % of control | [13] 109 % of control

CC1(C)CC(=O)C(CC(=O)c2ccccc2)=C(NN=C(N)N)C1
inactive: [16] 101 % of control | [17] 100 % of control | [18] 91 % of control

CC(C)CC1NC(=O)C2N=C(OC2C)C2CSSCC(NC(=O)c3csc1n3)C1=NC(C(=O)NC(CC(C)C)c3nc(cs3)C(=O)N2)C(C)O1 (configuration not stated)
inactive: dose: 0.2 mg/kg/injection, schedule: Q01DX005 (ip), vehicle: DMSO 97 % of control | dose: 0.4 mg/kg/injection, schedule: Q01DX005 (ip), vehicle: DMSO 96 % of control | dose: 0.8 mg/kg/injection, schedule: Q01DX005 (ip), vehicle: DMSO 90 % of control | dose: 1.5 mg/kg/injection, schedule: Q01DX005 (ip), vehicle: DMSO 97 % of control
